Data set [1] deals with T1, CAMK2A (Rattus norvegicus, UniProt P11275).
T1 construct: host or cells: HEK293T
Description: biochemical. It counts as binding. Conditions: non-specific: 1 mM GHB. As for the experimental part: Cells were transfected with rat CAMK2A (Origene construct RR201121) or rat CAMK2B (Origene construct RR200520) using PolyFect (Qiagen, West Sussex, UK) according to the manufacturer's protocol. Whole cell homogenates were prepared 48 hr post-transfection by washing the cells with ice-cold 1×PBS and harvesting by scraping. Cells were collected and centrifuged for 10 min at 1000×g. Cell pellets were resuspended in ice-cold 1×PBS and homogenized using 2×1 mm zirkonium beads in a bullet blender for 20 s at max speed (NextAdvance, NY, USA). Homogenates were cleared by centrifugation (10 min, 4° C., 14.000×g). Protein concentration was determined using the Bradford protein assay. 150-200 μg protein was incubated with 5 nM ^3H-A and test compound in 1 ml total volume for 1 hr at 0-4° C. […] Proteins were then precipitated by addition of ice-cold acetone (4× of the assay volume), vortexing and incubation at −20° C. for 1 hr. Proteins were filtrated rapidly through GF/C unifilters (Whatman) and washed. The dried filters were added scintillation liquid and radioactivity measured on a Tricarb 2100 Scintillation counter (Packard).
A) Principle of photoaffinity labelling workflow. […] After introduction of biotin through a Staudinger-Bertozzi ligation to EZ-Link™ Phosphine-PEG3-Biotin (ThermoFisher Scientific), the biotin-labelled proteins were affinity-purified and subjected to LC-MS/MS analysis. […] C)^3H-A binding to cortical membranes from CAMK2A and CAMK2B knock-out mouse brains.
Human/rat CAMK2A expressed in HEK cells was assayed in an in-house established ^3H-A filtration binding assay performed on whole cell lysates of CAMK2A-transfected HEK293T cells.

Data set [2] concerns the target T2, high-affinity forebrain binding sites (Mus musculus, UniProt P11798).
T2 construct: from tissue; host or cells: C57BL/6J mouse brain (hippocampus, cortex) after i.p. injection of 3H-A
The data set can be described thus: Ex vivo 3H-A radioligand binding, autoradiography of mouse brain sections. The note with it: 5 MBq per mouse i.p.; 30 min. It counts as in vivo, mice. As for the experimental part:
^3H-A was used to perform ex vivo binding to C57BL/6J mice. Thus, in a design with 5 mice per group, ^3H-A (5 MBq per mouse) was injected i.p. After 30 min, the brains were dissected and autoradiography performed.

Data set [3] has as its target T3, CAMK2B (Rattus norvegicus, UniProt P08413).
T3 construct: host or cells: HEK293T
Description: 3H-A binding to recombinant CAMK2B expressed in HEK293T cells. The note with it: HEK293T whole cell homogenate. As for the experimental part:
HEK293T were cultured using standard conditions, using Dulbecco's modified Eagle Medium with GlutaMax, 10% fetal bovine serum and 1% penicillin-streptomycin, and incubated at 37° C. in a humidified atmosphere of […] and 5% CO2. Cells were transfected with rat CAMK2A (Origene construct RR201121) or rat CAMK2B (Origene construct RR200520) using PolyFect (Qiagen, West Sussex, UK) according to the manufacturer's protocol. Whole cell homogenates were prepared 48 hr post-transfection by washing the cells with ice-cold 1×PBS and harvesting by scraping. Cells were collected and centrifuged for 10 min at 1000×g. Cell pellets were resuspended in ice-cold 1×PBS and homogenized using 2×1 mm zirkonium beads in a bullet blender for 20 s at max speed (NextAdvance, NY, USA). Homogenates were cleared by centrifugation (10 min, 4° C., 14.000×g). Protein concentration was determined using the Bradford protein assay. 150-200 μg protein was incubated with 5 nM ^3H-A and test compound in 1 ml total volume for 1 hr at 0-4° C. […] Proteins were then precipitated by addition of ice-cold acetone (4× of the assay volume), vortexing and incubation at −20° C. for 1 hr. Proteins were filtrated rapidly through GF/C unifilters (Whatman) and washed. The dried filters were added scintillation liquid and radioactivity measured on a Tricarb 2100 Scintillation counter (Packard). […]

Data set [4] relates to rodents. Description: Observation of acute toxicity or sedation in rodents. It counts as in vivo. Conditions: doses as high as 500 mg/kg.
For data set [5] the following is noted: peripheral administration; cited from earlier work.

T2 sequence (P11798 whole entry): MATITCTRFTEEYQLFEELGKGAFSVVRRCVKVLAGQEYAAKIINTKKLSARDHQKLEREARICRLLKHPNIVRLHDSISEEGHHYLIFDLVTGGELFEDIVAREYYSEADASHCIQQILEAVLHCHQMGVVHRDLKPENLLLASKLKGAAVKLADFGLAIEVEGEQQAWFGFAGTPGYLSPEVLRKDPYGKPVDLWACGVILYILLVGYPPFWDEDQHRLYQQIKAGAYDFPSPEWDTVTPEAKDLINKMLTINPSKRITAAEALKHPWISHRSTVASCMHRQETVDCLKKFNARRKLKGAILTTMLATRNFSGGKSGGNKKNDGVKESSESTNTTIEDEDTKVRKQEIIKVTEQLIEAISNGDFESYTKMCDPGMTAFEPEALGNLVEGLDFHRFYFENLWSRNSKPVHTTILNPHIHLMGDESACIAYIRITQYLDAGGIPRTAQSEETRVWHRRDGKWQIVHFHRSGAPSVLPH
T1 sequence (P11275 whole entry): as the sequence (P11798 whole entry) above
T3 sequence (P08413 whole entry): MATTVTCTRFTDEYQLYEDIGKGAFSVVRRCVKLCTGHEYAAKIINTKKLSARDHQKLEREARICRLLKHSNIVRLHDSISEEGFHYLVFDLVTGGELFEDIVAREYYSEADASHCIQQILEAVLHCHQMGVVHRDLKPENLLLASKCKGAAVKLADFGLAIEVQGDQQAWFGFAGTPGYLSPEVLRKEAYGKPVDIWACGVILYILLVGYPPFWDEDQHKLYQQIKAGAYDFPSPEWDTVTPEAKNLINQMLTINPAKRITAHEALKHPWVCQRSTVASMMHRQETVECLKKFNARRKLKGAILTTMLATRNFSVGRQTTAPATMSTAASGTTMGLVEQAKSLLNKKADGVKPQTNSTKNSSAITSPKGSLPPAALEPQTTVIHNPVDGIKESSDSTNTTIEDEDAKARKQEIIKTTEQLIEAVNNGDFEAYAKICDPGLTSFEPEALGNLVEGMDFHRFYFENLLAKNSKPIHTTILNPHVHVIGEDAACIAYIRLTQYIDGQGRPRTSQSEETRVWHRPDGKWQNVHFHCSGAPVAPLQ

Turning to `[3H]C1(O)C=C(C(=O)O)CC1` (centres unmarked) [^3H-A], the “specific binding to CAMK2A-transfected HEK293T whole cell homogenate” value in data set [1] is 87%. The “ex vivo specific binding in hippocampus and cortex vs cerebellum” value in data set [2] is “Significant specific binding levels”. The “specific binding at CAMK2B” value in data set [3] is “no specific binding”.
Take `O=C([O-])C1=CC(O)CC1.[Na+]` (centres unmarked) [sodium salt of A]: in data set [4], the “acute toxicity or sedation” value was “no apparent observations of acute toxicity or sedation”. Besides, the brain entry entry in data set [5] is “readily enters the brain”.

The values are drawn from patent US12077495B2 (priority 2018, dated 2024).
